Patent publication US8779002B2, “Methods for treating a variety of diseases and conditions, and compounds useful therefor” (Salk Institute for Biological Studies, priority 2007, dated 2014)
Like-named read-outs stand apart in the source and are kept apart here.

What was measured:
Amyloid = Amyloid dissociation; set-up: key: + = positive result or enzyme activation
Rabbit stroke = Rabbit stroke model; set-up: key: + = positive result or enzyme activation; conditions: in vivo
JNK-2 = JNK-2 (Homo sapiens, UniProt P45984); assay: Protein kinase panel: JNK-2; assay type: biochemical; conditions: panel of 14 protein kinases
Description: (§1) A panel of 14 protein kinases was screened against Cmpd CNB-001. […] In HT22 cells and primary cortical neurons, Cmpd CNB-001 blocked p38 and JNK phosphorylation caused by glutamate by about 30%, and inhibited cell death. The phosphorylation of the other tested kinases was not altered.

p38 = p38 phosphorylation caused by glutamate; assay type: cell-based; conditions: HT22 cells and primary cortical neurons
Description: as §1

JNK = JNK phosphorylation caused by glutamate; assay type: cell-based; conditions: HT22 cells and primary cortical neurons
Description: as §1

[1] = Plasma concentration and brain content after a single oral dose by gavage; assay type: in vivo, mouse; conditions: for concentration at 0 hr / concentration at 1 hr / concentration at 2 hr: female, mouse, BALB/c mice
Protocol: The pharmacokinetic properties of a single oral dose of exemplary compounds according to the invention, i.e., Cmpd 11-001 and Cmpd J147, are studied in 10-week old female BALB/c mice. Cmpd 11-001 or J147 are emulsified in 2.5% carboxymethyl cellulose at a concentration of 20 mg/ml and administered by gavage at a dosage of 400 mg/kg body weight or 200 mg/kg body weight, respectively. The mice are then sacrificed at various intervals after administration (0, 1 hr, 2 hr, 4 hr, and 6 hr).
Plasma is obtained from blood (mixed with K3EDTA to prevent coagulation) by centrifugation at 4,300 g for 10 min, extracted twice with ethyl acetate/propanol (9:1, v/v). The extracts are centrifuged at 5,000 g for 10 min to form aqueous/organic layers. The organic layer containing Cmpd 11-001 is centrifuged at 20,000 g for 10 min to sediment particles. The extraction recovery from plasma is approximately 90%. Thirty μl thereof were analyzed by HPLC equipped with a C18 reversed phase column—Cmpd 11-001 is detected at 330 nm. The elution solvent system is 50% acetonitrile, 50% water and 1 g/L trifluoroacetic acid with a flow rate of 1 ml/min.
To study the distribution of compounds according to the invention in brain at various time intervals (0, 1 hr, 2 hr, 4 hr, and 6 hr) after gavage (400 mg/kg or 200 mg/kg as noted above), the mice are anesthetized with cloral hydrate and perfused through the heart with phosphate buffered saline (PBS) to remove blood in the brain. The mice are then decapitated, the brains removed, and quickly frozen and stored at −80° C. before further analysis. To measure the level of invention compound in the brain, weighed brain pieces are homogenized by sonication in 3 volumes of PBS. The homogenates are then extracted and measured by HPLC as described above.

[2] = test system: double transgenic (mutated PS1 and APP) Alzheimer's mouse model; assay: Morris Water Maze in Alzheimer's mouse model; assay type: in vivo; conditions: in the food for 4 months at 100 ppm
Protocol: FIG. 7 illustrates that […] improves spatial learning and memory in the Morris Water Maze. A circular water tank four feet in diameter, containing water at 26-27° C., is made opaque with white pigment, and a platform placed in the NW quadrant. Mice were randomly introduced to the tank facing the wall in one of the other quadrants for a trial of 50 s or until they found the platform. Upon reaching the platform, or at the end of the 50 s, the mice were placed on the platform, the mice were left on the platform for 15 s. There were four trials per mouse each day for seven consecutive days. The data are presented as the average time to reach the platform (escape latency) of the 4 daily trials for each group of mice. There are 3 groups of 5 mice each. One is wild type (circles), another is a double transgenic (mutated PS1 and APP) Alzheimer's mouse model (rectangle), and the third is the AD mouse plus J147 that has been in the food for 4 months at 100 ppm (diamond).

[3] = brain, 200 mg/kg single oral dose by gavage, read-out: Brain content
[4] = plasma, 200 mg/kg single oral dose by gavage, read-out: Plasma concentration

Chain of JNK-2 (P45984 whole entry, species assumed): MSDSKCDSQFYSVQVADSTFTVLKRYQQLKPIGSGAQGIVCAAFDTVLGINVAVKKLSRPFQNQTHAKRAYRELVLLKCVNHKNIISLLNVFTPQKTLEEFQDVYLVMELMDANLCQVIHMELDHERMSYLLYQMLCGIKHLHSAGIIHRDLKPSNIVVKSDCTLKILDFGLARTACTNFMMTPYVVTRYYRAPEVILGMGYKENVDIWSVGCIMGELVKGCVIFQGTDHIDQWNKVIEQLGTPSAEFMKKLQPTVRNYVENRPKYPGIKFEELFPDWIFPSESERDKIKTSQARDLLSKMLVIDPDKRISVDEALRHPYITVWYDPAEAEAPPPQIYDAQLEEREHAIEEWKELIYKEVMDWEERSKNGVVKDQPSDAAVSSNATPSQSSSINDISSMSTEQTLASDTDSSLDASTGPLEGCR

In the case of `COc1cc(/C=C/c2cc(/C=C/c3ccc(O)c(OC)c3)n(-c3ccccc3)n2)ccc1O` [CNB-001], the “Amyloid Dissociation” value (Amyloid) is reported as “+”, the “Animal Models, Rabbit stroke” value (Rabbit stroke) is reported as “+” and the Inhibition of kinase (JNK-2) is reported as “None of the other enzymes that were assayed, including JNK-1 or JNK-2, were affected”. For the same molecule, the “Block of p38 phosphorylation caused by glutamate” value (p38) was “about 30%” and the “Block of JNK phosphorylation caused by glutamate” value (JNK) was “about 30%”.

For `COc1cccc(/C=N/N(C(=O)C(F)(F)F)c2ccc(C)cc2C)c1` [Compound J147], the “Time at which maximum plasma concentration is reached after administration” value ([1]; 200 mg/kg single oral dose by gavage, mice) was “about 1 hr”, the concentration at 0 hr [1, 3] was 0 ng/g and the concentration at 1 hr [1, 3] was 3900 ng/g. The concentration at 2 hr [1, 3] was 2800 ng/g, the concentration at 0 hr [1, 4] was 0 ng/mL and the concentration at 1 hr [1, 4] was 5600 ng/mL. The concentration at 2 hr [1, 4] was 300 ng/mL, the “Retention in the brain” value ([1]; relative to 11-011, after oral gavage in mice) was “improved ability to be retained in the brain” and the “Deficit in memory of AD mice relative to wild type (escape latency)” value [2] was “corrected”.
